# Assays:
# Format in all cases: cell-based
# [1] = target: T1, TP receptor (Homo sapiens, UniProt P21731); assay: platelet aggregation evoked by I-BOP; details: I-BOP 2 ng/0.5 ml; read-out: IC50 for inhibition of aggregation evoked by I-BOP
# T1 construct: endogenous in cells; host or cells: washed human platelets
# T1 sequence (P21731 1-343): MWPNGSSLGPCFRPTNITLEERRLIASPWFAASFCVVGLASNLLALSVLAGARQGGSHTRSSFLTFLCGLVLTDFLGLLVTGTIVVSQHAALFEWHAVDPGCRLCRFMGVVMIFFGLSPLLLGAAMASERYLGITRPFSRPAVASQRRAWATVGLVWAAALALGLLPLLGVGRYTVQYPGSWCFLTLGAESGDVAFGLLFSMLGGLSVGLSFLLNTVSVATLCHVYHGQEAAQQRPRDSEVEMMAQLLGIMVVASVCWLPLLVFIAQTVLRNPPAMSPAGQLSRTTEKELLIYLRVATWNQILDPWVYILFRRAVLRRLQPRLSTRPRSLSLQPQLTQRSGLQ
# Experimental: Venous blood was obtained from healthy human subjects who had not taken NSAID's for at least two weeks. Blood was drawn into plastic syringes containing ACD. It was immediately centrifuged at 23° at 200×g for 15 min. The platelet rich plasma was transferred into fresh plastic tubes and centrifuged at 400×g for 5 min. The supernatant was discarded and the platelet sediment was resuspended in fresh medium containing NaCl (137 mM), KCl (1 mM), NaH2PO4, glucose (5.5 mM), HEPES (20 mM) and CaCl2 (1 mM) and allowed to stand at room temperature for 30 min. A platelet count was made, which determined the volume of platelet suspension needed to make up 350×10^6 cells for each measurement. The aliquot was diluted with medium to make 0.5 ml/assay/cuvette. […]
# 0.5 ml of platelet suspension was added to siliconized glass tubes (four at a time) and heated with magnetic stirring to 37° for 1 min in a platelet aggregometer (PAP-4C). […] The response was recorded for the next 5 min. […] In experiments where the conversion of tritiated PGH2 was to be monitored, the procedure described above was repeated with tritiated PGH2 instead of unlabeled PGH2. After extraction of the sample as described above, the radiolabeled compounds were analyzed by TLC. Dose response curves for varying amounts of test compounds were generated and the data expressed as % inhibition of collagen-induced platelet aggregation. […]
# [2] = target: T1, TP receptor; assay: platelet aggregation evoked by the TxA2 mimic U46619
# Experimental: Venous blood was obtained from healthy human subjects who had not taken NSAID's for at least two weeks. Blood was drawn into plastic syringes containing ACD. It was immediately centrifuged at 23° at 200×g for 15 min. The platelet rich plasma was transferred into fresh plastic tubes and centrifuged at 400×g for 5 min. The supernatant was discarded and the platelet sediment was resuspended in fresh medium containing NaCl (137 mM), KCl (1 mM), NaH2PO4, glucose (5.5 mM), HEPES (20 mM) and CaCl2 (1 mM) and allowed to stand at room temperature for 30 min. A platelet count was made, which determined the volume of platelet suspension needed to make up 350×10^6 cells for each measurement. The aliquot was diluted with medium to make 0.5 ml/assay/cuvette. Appropriate calibration of the aggregometer (PAP-4C) for 0% and 100% transmission was carried out through the use of a sample of platelet suspension and cell-free medium (37).
# (§1) 0.5 ml of platelet suspension was added to siliconized glass tubes (four at a time) and heated with magnetic stirring to 37° for 1 min in a platelet aggregometer (PAP-4C). Either vehicle alone (ethanol, 1 μl) or hepoxilin analog was then added, followed two min later by agonist (collagen: 2 μg; PGH2: 100 ng/0.5 ml; U46619: 10 ng/0.5 ml or I-BOP: 2 ng/0.5 ml). The response was recorded for the next 5 min. In experiments where analysis of TxB2 and HHT were to be made by HPLC, the platelet suspension at the end of the experiment was diluted with ethyl acetate, 100 ng of prostaglandin B1 was added as internal standard, and the mixture was acidified to pH 3 with 0.1 N HCl. After centrifugation, the organic layer was separated, washed twice with water to neutrality, and evaporated to dryness. Half of the sample was taken and was resuspended in 1 ml ethyl acetate containing 20 μg ADAM reagent, and was left in the dark for 2 h (38). The solvent was then evaporated and the residue was acetylated with a solution of pyridine/acetic anhydride (3/1, v/v) during 16 h at 23°. The reagents were evaporated to dryness and the residue was resuspended in acetonitrile/water for HPLC analysis. In experiments where the conversion of tritiated PGH2 was to be monitored, the procedure described above was repeated with tritiated PGH2 instead of unlabeled PGH2. After extraction of the sample as described above, the radiolabeled compounds were analyzed by TLC. Dose response curves for varying amounts of test compounds were generated and the data expressed as % inhibition of collagen-induced platelet aggregation. Each point was investigated 5 times and statistical analysis of the data was carried out using Macintosh Statview statistical software.
# [3] = tested on: Plase A2; assay: AA formed in collagen-treated washed human platelets (Plase A2), HPLC; details: for Plase A2 enzyme activity (% of control values, mean ± SD): n = 3
# Experimental: as §1
# Measurement of eicosanoids formed by platelets during treatment with collagen or the TP receptor agonists in the presence or absence of PBT-3 was carried out by HPLC after appropriate derivatization with a fluorescent tag (anthracyl diazomethane—ADAM) which forms a fluorescent ester (44). The method was adapted to measure the following compounds: TxB2, HHT, 12-HETE and M. The platelet suspension at the end of the experiment was mixed with ethyl acetate, 100 ng of prostaglandin B1 was added as internal standard and the mixture was acidified to pH 3 with 0.1 N HCl. After centrifugation, the organic layer was separated, washed twice with water to neutrality, and evaporated to dryness. The residue was resuspended in ethyl acetate and half of the sample was taken. It was diluted to 0.2 ml with ethyl acetate containing 20 μg ADAM reagent, and was left in the dark for 2 h. The solvent was then evaporated and the residue was acetylated with a solution of pyridine/acetic anhydride (3/1, v/v) for 16 h at 23°. The reagents were evaporated to dryness and the residue was resuspended in acetonitrile/water for HPLC analysis. Dose response curves for varying amounts of test compounds were generated and the data were expressed as % inhibition of agonist-induced platelet aggregation. Each point was investigated 3 times and statistical analysis of the data was carried out using Macintosh Statview statistical software.
# Analysis of the anthryl (ADAM)-acetate derivative of TxB2, HHT and 12 HETE in the extracted platelet samples was carried out on a Hewlett Packard (1100 series) HPLC to which was attached a Shimadzu fluorescent detector (RF-10AXL). The detector was operated with excitation at 364 nm, emission at 411 nm. […]
smiles,measurement,setting,value
"CCCCC/C=C\CC1CC1[C@@H](O)/C=C\C/C=C\CCCC(=O)OC (stereo partly drawn) [PBT-3, 10(S)-hydroxy-11,12-cyclopropyl-eicosa-5Z,8Z,14Z-trienoic acid methyl ester]",IC50,[1],60 nM
same,effect on U46619-induced aggregation in aspirin-treated platelets,"[2]; PBT-3 added after aspirin, before U46619",blockade of the aggregation
same,IC50,"[2]; U46619 10 ng/0.5 ml, read-out: IC50 for inhibition of aggregation evoked by U46619",700 nM
same,inhibition of aggregation evoked by U46619,[2]; dose of 1 μg,inhibited the aggregation
same,"Plase A2 enzyme activity (% of control values, mean ± SD)",[3]; PBT-3 0.05 μM,100.0 ± 6.9^NS % of control
same,"Plase A2 enzyme activity (% of control values, mean ± SD)",[3]; PBT-3 0.30 μM,91.9 ± 5.6^NS % of control
same,"Plase A2 enzyme activity (% of control values, mean ± SD)",[3]; PBT-3 0.60 μM,89.5 ± 15.6^NS % of control
same,"Plase A2 enzyme activity (% of control values, mean ± SD)",[3]; PBT-3 3.00 μM,120.8 ± 18.3^NS % of control
same,"inhibition of Plase A2, in words","[3]; relatively large amounts of PBT-3, about 3-4 log doses greater than required to inhibit the TP receptor","Neither COX-1, COX-2,12-LOX nor Plase A2 was inhibited"

# From patent publication US8071654B2, “Inhibitors of thromboxane formation and action” (priority 2000, dated 2011)
